Results on 11 molecules are retold here after ChEMBL document CHEMBL1201862, “PubChem BioAssay data set” (2004).

Among the test systems are NCI-H23; BT-549; SF-268; SK-MEL-2; DU-145; HCC 2998; CAKI-1; RXF 393; HOP-92; HOP-62; OVCAR-4; LOX IMVI; MDA-MB-435; MCF7; CCRF-CEM; SR; IGROV-1; SK-MEL-5; HL-60; T47D.
Assay in all cases: NCI tumour cell line growth inhibition, 48 h

SMILES strings stand for the structures.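 A five-concentration, 48-hour dose response in 96-well plates underlies each endpoint, interpolated linearly between surrounding concentrations. The concentration for 50% growth inhibition is given as GI50.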 Active and inactive are the calls of the source. Rule as the data show it: active = GI50 up to about 1.1 µM and inactive = higher.

On to `Cn1nc(S(N)(=O)=O)s/c1=N/S(=O)(=O)c1ccc(N)cc1`, for which the GI50 in the experiment on NCI-H23, in the experiment with BT-549, with SF-268, in the experiment on SK-MEL-2, with DU-145 and in the experiment with HCC 2998 was > 100 µM (inactive) throughout. The GI50 with CAKI-1, in the experiment on RXF 393, in the experiment on HOP-92, in the experiment with HOP-62 and in the experiment with OVCAR-4 was > 100 µM (inactive) each time.
On to `CSc1nc(NC2CC2)c2c(n1)Sc1nc3ccccc3n1N=C2`, for which the GI50 is 31.8 µM (inactive) with LOX IMVI; 21.4 µM (inactive) in the experiment on NCI-H23; 34.2 µM (inactive) in the experiment with BT-549; 35.5 µM (inactive) in the experiment with MDA-MB-435; 17.1 µM (inactive) in the experiment with SF-268; 30.3 µM (inactive) with SK-MEL-2. The GI50 with DU-145 is 23.5 µM (inactive); in the experiment on HCC 2998 it was 27.5 µM (inactive); in the experiment with CAKI-1, 34.9 µM (inactive); with MCF7 it was 26.6 µM (inactive); with CCRF-CEM, > 100 µM (inactive); with SR, > 100 µM (inactive). Also, the GI50 with HOP-92 is 21 µM (inactive); in the experiment on HOP-62, 16.3 µM (inactive); with IGROV-1, 42.6 µM (inactive); in the experiment with OVCAR-4, 16.7 µM (inactive); with SK-MEL-5, 17 µM (inactive).
Turning to `COc1ccc(C(O)c2nccn2C)c(OC)c1` (stereo not given), the GI50 in the experiment with NCI-H23, with BT-549, in the experiment with SF-268, in the experiment with SK-MEL-2, in the experiment on DU-145 and in the experiment with HL-60 was > 100 µM (inactive) each time. Also, the GI50 with HCC 2998, in the experiment on CAKI-1, in the experiment with MCF7, in the experiment on CCRF-CEM, in the experiment with RXF 393 and in the experiment with SR was > 100 µM (inactive) throughout. For the same molecule, the GI50 with HOP-92 is > 100 µM (inactive); in the experiment with HOP-62 it was > 100 µM (inactive); in the experiment with IGROV-1, > 100 µM (inactive); with OVCAR-4, > 100 µM (inactive); with SK-MEL-5 it was 86.3 µM (inactive).
`CN(C)NC1=NS(=O)(=O)c2cc3c(=O)n(C)[nH]c3cc2S1`: the GI50 in the experiment on LOX IMVI, with NCI-H23, in the experiment on BT-549, with SF-268, with SK-MEL-2 and in the experiment on DU-145 was > 10 µM (inactive) throughout. The GI50 in the experiment with HL-60 was > 10 µM (inactive); in the experiment on HCC 2998, > 10 µM (inactive); with CAKI-1, > 10 µM (inactive); with MCF7, 5.05 µM (inactive); in the experiment on CCRF-CEM, > 10 µM (inactive); with RXF 393, > 10 µM (inactive). The GI50 in the experiment on SR, in the experiment with HOP-92, in the experiment with HOP-62, in the experiment with T47D, with IGROV-1 and in the experiment with OVCAR-4 was > 10 µM (inactive) each time. The GI50 in the experiment with SK-MEL-5 is > 10 µM (inactive).
On to `Cc1ccc(S(=O)(=O)N/N=C2/C(=O)Nc3c(Cl)cc(Cl)cc32)cc1`, for which the GI50 is 37.8 µM (inactive) in the experiment on LOX IMVI; 63.1 µM (inactive) with NCI-H23; 86.7 µM (inactive) in the experiment with BT-549; 51.6 µM (inactive) in the experiment on MDA-MB-435; > 100 µM (inactive) in the experiment with SK-MEL-2; 36.9 µM (inactive) in the experiment on HL-60. The GI50 in the experiment on HCC 2998 is 75.9 µM (inactive); with CAKI-1, 59.4 µM (inactive); with MCF7 it was 75 µM (inactive); in the experiment on CCRF-CEM, 55.6 µM (inactive); in the experiment with RXF 393, 43.3 µM (inactive); with SR it was 34.4 µM (inactive). Further, the GI50 with HOP-92 is > 100 µM (inactive); with HOP-62 it was > 100 µM (inactive); in the experiment with IGROV-1, 32.2 µM (inactive); in the experiment on OVCAR-4, > 100 µM (inactive); in the experiment on SK-MEL-5, 59.6 µM (inactive).
Regarding `C/C(=N/NC(=S)N(C)CCc1ccccn1)c1cnccn1`, the GI50 with LOX IMVI is < 0.01 µM (active); in the experiment with NCI-H23, < 0.01 µM (active); in the experiment on BT-549 it was 0.398 µM (active); with MDA-MB-435 it was 0.867 µM (active); with SF-268 it was < 0.01 µM (active); in the experiment on SK-MEL-2, 4.78 µM (inactive). Moreover, the GI50 is 0.378 µM (active) with DU-145; < 0.01 µM (active) in the experiment with HL-60; 1.4 µM (inactive) in the experiment on HCC 2998; < 0.01 µM (active) in the experiment on CAKI-1; < 0.01 µM (active) in the experiment with MCF7; < 0.0358 µM (active) in the experiment on CCRF-CEM. Also, the GI50 in the experiment with RXF 393 was 0.465 µM (active); in the experiment on SR it was 0.018 µM (active); in the experiment with HOP-92 it was 3.35 µM (inactive); with HOP-62 it was < 0.0246 µM (active); in the experiment on IGROV-1 it was < 0.01 µM (active); with OVCAR-4, < 0.01 µM (active). Further, in the experiment on SK-MEL-5, the GI50 is 0.0256 µM (active).
Regarding `Nc1ccc(S2(c3ccc(N)cc3)C=C(c3ccccc3)C(c3ccccc3)=C2)cc1`, the GI50 in the experiment on LOX IMVI is > 33.5 µM (inactive); in the experiment on NCI-H23, > 47.2 µM (inactive); in the experiment with MDA-MB-435 it was > 35.9 µM (inactive); with SF-268 it was > 44.5 µM (inactive); in the experiment on SK-MEL-2 it was > 26.6 µM (inactive); in the experiment on DU-145, > 38.4 µM (inactive). In addition, the GI50 is > 100 µM (inactive) in the experiment with HL-60; > 54 µM (inactive) in the experiment on HCC 2998; > 32.1 µM (inactive) with MCF7; > 100 µM (inactive) in the experiment on CCRF-CEM; > 26.9 µM (inactive) in the experiment on RXF 393; > 45.5 µM (inactive) in the experiment on SR. The GI50 in the experiment on HOP-92 was 18.1 µM (inactive); in the experiment with HOP-62 it was 70.8 µM (inactive); in the experiment on T47D it was > 100 µM (inactive); with IGROV-1, > 100 µM (inactive); in the experiment on OVCAR-4, 11 µM (inactive); in the experiment on SK-MEL-5, > 100 µM (inactive).
With `Cc1[nH]nc(C(=O)N/N=C/c2ccccc2Cl)c1/N=N\N(C)C`, the GI50 in the experiment with LOX IMVI is > 76.4 µM (inactive); in the experiment with NCI-H23, > 25.6 µM (inactive); in the experiment on BT-549, 2.99 µM (inactive); with MDA-MB-435, > 100 µM (inactive); in the experiment with SF-268, > 100 µM (inactive); in the experiment on SK-MEL-2, > 100 µM (inactive). The GI50 with DU-145 was 4.28 µM (inactive); with HL-60 it was 4.82 µM (inactive); with HCC 2998 it was > 100 µM (inactive); in the experiment with CAKI-1, > 32.9 µM (inactive); in the experiment on CCRF-CEM, 2.59 µM (inactive); with RXF 393, > 37.9 µM (inactive). The GI50 was 0.171 µM (active) with SR; > 23.9 µM (inactive) with HOP-92; 1.34 µM (inactive) in the experiment on HOP-62; 40.8 µM (inactive) with IGROV-1; 14.9 µM (inactive) with OVCAR-4; 14.6 µM (inactive) with SK-MEL-5.
As to `Oc1ccc([I+]c2ccccc2)cc1O`, the GI50 with LOX IMVI is 30.3 µM (inactive); with NCI-H23, 26.3 µM (inactive); with BT-549, 8.36 µM (inactive); with MDA-MB-435, 23 µM (inactive); in the experiment on SF-268 it was 42.8 µM (inactive); in the experiment on DU-145, 57.8 µM (inactive). Moreover, the GI50 in the experiment on HL-60 was 16 µM (inactive); in the experiment on HCC 2998 it was 23.9 µM (inactive); with CAKI-1, > 100 µM (inactive); in the experiment with MCF7, > 10 µM (inactive); with CCRF-CEM, 9.46 µM (inactive); with RXF 393, 52.2 µM (inactive). Also, the GI50 was 19.1 µM (inactive) with SR; 0.0583 µM (active) in the experiment on HOP-92; 34.2 µM (inactive) in the experiment with HOP-62; 29.7 µM (inactive) in the experiment on IGROV-1; 25.8 µM (inactive) in the experiment with OVCAR-4; 36 µM (inactive) in the experiment with SK-MEL-5.
Turning to `CC1CCOc2ccc(cc2)/C=N\c2ccc(cc2)CCc2ccc(cc2)/N=C\c2ccc(cc2)OCC1`, the GI50 with LOX IMVI, in the experiment on NCI-H23, with BT-549, with MDA-MB-435, with SF-268 and in the experiment with SK-MEL-2 was > 100 µM (inactive) in each case. Moreover, the GI50 with DU-145 was > 100 µM (inactive); in the experiment on HCC 2998, > 100 µM (inactive); in the experiment on CAKI-1 it was > 100 µM (inactive); with MCF7, > 100 µM (inactive); with CCRF-CEM, 29.8 µM (inactive); in the experiment with RXF 393 it was 35.6 µM (inactive). Moreover, the GI50 was > 100 µM (inactive) with SR; 60.5 µM (inactive) in the experiment on HOP-92; 18.2 µM (inactive) with HOP-62; > 100 µM (inactive) in the experiment with IGROV-1; > 100 µM (inactive) in the experiment with OVCAR-4; > 100 µM (inactive) in the experiment on SK-MEL-5.
With `Nc1ncnc2c1ncn2C1OC(CO)C(O)C(O)C1O` (stereo not given), the GI50 with LOX IMVI, in the experiment with NCI-H23, in the experiment with BT-549, in the experiment on MDA-MB-435, in the experiment on SF-268 and in the experiment with SK-MEL-2 was > 100 µM (inactive) throughout. In addition, the GI50 with DU-145, in the experiment on HL-60, in the experiment with HCC 2998, in the experiment with CAKI-1, in the experiment with MCF7 and in the experiment with CCRF-CEM was > 100 µM (inactive) throughout. The GI50 in the experiment with SR, with HOP-92, in the experiment on HOP-62, in the experiment on IGROV-1, in the experiment on OVCAR-4 and in the experiment with SK-MEL-5 was > 100 µM (inactive) in each case.
